Data set [1] deals with VMAT2 (Macaca fascicularis, UniProt A0A2K5UVB8). Kind of data set: VMAT2 occupancy in NHP brain after i.v. NBI-98782, [^18F]AV-133 PET. The format is in vivo, cynomolgus monkeys (Macaca fascicularis). The note with it: cynomolgus monkey. From the text:
A radioligand, [^18F]AV-133, has been used to image and quantify brain VMAT2 in vivo.
Two female non-naïve cynomolgus monkeys (Macaca fascicularis) were used in this study. The animals were judged to be in good health before the start of the study. At study origination, animals A7701 (Tag ID A5028) and A7702 (Tag ID A5029) were 4.45 kg/4 years 11 months and 4.75 kg/3 years 10 months, respectively.
Dynamic data were acquired in the MicroPET Focus-220 camera (Siemens Microsystems, Knoxville, TN). Emission data were collected for 120 min post-injection and reconstructed into a series of 33 frames and all standard corrections were applied: normalization, random, scatter and attenuation (via CT scan). Dynamic brain PET images were transferred and analyzed using the image processing PMOD software package v3.802 (PMOD Technologies, Zurich, Switzerland). The PET images were rigidly aligned to a previously acquired animal's brain T1 MRI and then spatially normalized to a common cynomolgus MRI template for anatomical brain region definition.
Volumes of interest (VOIs) defined in the cynomolgus template space (see e.g., Ballanger et al. Neuroimage, 2013, 77:26-43) were applied to the spatially normalized PET images to compute time-activity curves (TACs, kBq/cm^3) for caudate (0.96 cm^3), putamen (1.34 cm^3) and occipital (8.61 cm^3). TACs and images (averaged between 90-120 min) were presented in Standard Uptake Value (SUV) units (g/mL) normalized by the weight of the animal and the injected dose
Non-invasive Logan graphical analysis (start time of fit, t*=30 min) was used to estimate regional non-displaceable binding potential (BPND) using the TACs in the caudate and putamen, with the cerebellar cortex as the reference TAC. […] Target occupancy was calculated according to the Equation 2-1.
where h is the Hill slope (h=1.0) and C is the mean of observed plasma concentrations during the scanning interval (60 to 180 minutes post-dose).

Data set [2] can be described thus: NBI-98782 concentration in cynomolgus monkey plasma by LC-MS/MS. The format is in vivo, cynomolgus monkeys (Macaca fascicularis). How it is done: During each scan, whole blood PK samples were collected (in K2 EDTA tubes) at pre-dose (−5 min), and post-dose at 4 (approximately 1 min after completion of bolus), 30, 60 (just prior to [^18F]AV-133 radiopharmaceutical administration), 90, 120, 150, 180 (end of scan) minutes after test article administration. PK samples were approximately 1 mL each (8 mL total, including pre-dose sample).
Plasma samples were processed using liquid-liquid extraction with the additional of a stable isotopic labeled internal standard ^13C-83198. Processed samples were chromatographically separated on a C18 reversed phase column and coupled to a Sciex API 4000 triple quadrupole mass spectrometer for detection.
Quantitation was performed using a weighted 1/×2 linear least squares regression analysis generated from calibration standards prepared on the day of extraction. The liquid-liquid extraction began with the addition of internal standard solution (10.0 μL of approximately 400 ng/mL of [^13C]-radiolabeled [^13C]-NBI-98854 (i.e., [^13C]-valbenazine) and [^13C]-NBI-83198 (a racemic mixture of two dihydrotetrabenazine enantiomers). After adding 50.0 μL of sodium carbonate solution (0.2 M) and 2.00 mL of methyl tert-butyl ether to all samples, the tubes were sealed, vortexed, and centrifuged. Subsequently, the organic layer was transferred to clean tubes and evaporated to dryness. The samples were then reconstituted with 150 μL of reconstitution solution (water/methanol/acetic acid; 80:20:0.2), sealed, vortexed, sonicated and centrifuged. The reconstituted extract was then transferred into a 96-well plate. […] A triple quadrupole mass spectrometer (Sciex API 4000) equipped with TurboIonSpray source was used in the positive ion mode.

The target of data set [3] is T1, VMAT2 (Homo sapiens, UniProt Q05940). The note with it: Freeby et al., Mol. Imaging Biol. 2016; cited from earlier work.
Data set [4] is described as follows: Adverse events in healthy volunteers receiving valbenazine. The format is in vivo, human. The note with it: 40-160 mg valbenazine. How it is done: Interim imaging and tolerability data in an ongoing study were collected and analyzed in cohorts of 2-4 healthy volunteers. For each scan, participants received an injection of the D2/D3 dopamine receptor agonist radioligand [^11C](+)4-propyl-3,4,4a,5,6,10b-hexahydro-2H-naphtho[1,2-b][1,4]oxazin-9-ol ([^11C]-PHNO), followed by 90 min of data acquisition using Siemens Biograph PET/CT. For post-valbenazine scans, participants received an oral dose of valbenazine 6-8 hours before the administration of [^11C]-PHNO, with PET imaging occurring around the time of maximal valbenazine plasma concentration. The binding potential relative to the non-displaceable binding (BPND) in the putamen, caudate, and ventral striatum, was used as the primary endpoint. The cerebellum was used as the reference region to estimate the regional BPND. Decreases in synaptic dopamine following valbenazine administration corresponded to an increase in [^11C]-PHNO BPND relative to baseline (ΔBPND). Plasma concentrations of valbenazine and (+)-α-dTBZ (dihydrotetrabenazine), the active metabolite of valbenazine, were measured at the start and end of each post-valbenazine PET scan. The mean plasma (+)-α-dTBZ concentration (Cave) was matched to the ΔBPND for each participant to provide an exposure-response curve.

Data set [5] relates to VMAT2. Kind of data set: Estimated VMAT2 target occupancy and clinical observations in cynomolgus monkey. The note with it: ~30 min to 1 h post-dosing, at estimated 96%-98% VMAT2 target occupancy. The format is in vivo. An excerpt: As described below, there were adverse events at these doses, enabling a benchmarking of % TO values that could lead to adverse events.
In data set [6] the test system is synaptic dopamine. Kind of data set: Valbenazine effects on the dopamine system, [^11C]-PHNO PET. The format is in vivo, human. The note with it: 40-160 mg oral valbenazine, healthy volunteers, interim analysis, eight participants. An excerpt:
By way of example only, in some embodiments, “synaptic dopamine” can be measured non-invasively as follows. Subjects receive an oral dose of a VMAT2 inhibitor before administration of [^11C]-PHNO, with PET imaging occurring around the time of maximal VMAT2 inhibitor plasma concentration. The binding potential relative to the non-displaceable binding (BPND) in the putamen, caudate, and ventral striatum, is used as the primary endpoint. The cerebellum is used as the reference region to estimate the regional BPND. The measured increases in [^11C]-PHNO BPND relative to baseline (ΔBPND) correspond to decreases in synaptic dopamine following VMAT2 inhibitor administration. Other radioligands can be used. Alternatively, in some embodiments, indirect measurements of synaptic dopamine can be achieved via invasive techniques such as methods described in Huang M., et al., Pharmacology, Biochemistry and Behavior 190 (2020) 172872; and Bosche S. L., et al., Frontiers in Neuroscience, November 2021|Volume 15|Article 728092.
Interim imaging and tolerability data in an ongoing study were collected and analyzed in cohorts of 2-4 healthy volunteers. […] Plasma concentrations of valbenazine and (+)-α-dTBZ (dihydrotetrabenazine), the active metabolite of valbenazine, were measured at the start and end of each post-valbenazine PET scan. […]

In data set [7] the target is T1, VMAT2. Kind of data set: Estimated VMAT2 target occupancy in humans for valbenazine from NHP PET free EC50 and human PK. The arrangement: The free EC50 derived from NHP PET was then used to estimate % TO in humans; from tissue; host or cells: human brain in vivo (modelled, not imaged). The format is in vivo.

Consider 3 compounds from patent publication US20250064990A1, “METHODS OF SCREENING FOR VMAT2 INHIBITORS” (Neurocrine Biosciences, Inc., priority 2021, published 2025).

Several values for one entry are separate records, joined by “and”; a condition that tells them apart may be missing. Equal values may be shown once. Read-outs that look alike come from different tables or passages of the source.

T1 sequence (Q05940 whole entry): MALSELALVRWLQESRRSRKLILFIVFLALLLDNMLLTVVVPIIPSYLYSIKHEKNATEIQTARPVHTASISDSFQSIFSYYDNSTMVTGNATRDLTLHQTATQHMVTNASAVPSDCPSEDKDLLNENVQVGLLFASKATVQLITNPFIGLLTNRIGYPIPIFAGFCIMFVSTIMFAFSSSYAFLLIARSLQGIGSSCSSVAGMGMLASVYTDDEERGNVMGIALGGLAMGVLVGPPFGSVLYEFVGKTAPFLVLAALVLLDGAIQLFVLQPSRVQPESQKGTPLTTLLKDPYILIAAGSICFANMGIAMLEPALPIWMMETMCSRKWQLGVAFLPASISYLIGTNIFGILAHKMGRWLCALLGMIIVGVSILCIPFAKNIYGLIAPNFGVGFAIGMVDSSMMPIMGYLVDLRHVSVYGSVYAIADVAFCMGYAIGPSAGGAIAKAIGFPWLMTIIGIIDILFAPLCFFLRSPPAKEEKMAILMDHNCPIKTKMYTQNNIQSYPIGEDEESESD
Chain of VMAT2 (Macaca fascicularis, UniProt A0A2K5UVB8) (A0A2K5UVB8 entry or part of it): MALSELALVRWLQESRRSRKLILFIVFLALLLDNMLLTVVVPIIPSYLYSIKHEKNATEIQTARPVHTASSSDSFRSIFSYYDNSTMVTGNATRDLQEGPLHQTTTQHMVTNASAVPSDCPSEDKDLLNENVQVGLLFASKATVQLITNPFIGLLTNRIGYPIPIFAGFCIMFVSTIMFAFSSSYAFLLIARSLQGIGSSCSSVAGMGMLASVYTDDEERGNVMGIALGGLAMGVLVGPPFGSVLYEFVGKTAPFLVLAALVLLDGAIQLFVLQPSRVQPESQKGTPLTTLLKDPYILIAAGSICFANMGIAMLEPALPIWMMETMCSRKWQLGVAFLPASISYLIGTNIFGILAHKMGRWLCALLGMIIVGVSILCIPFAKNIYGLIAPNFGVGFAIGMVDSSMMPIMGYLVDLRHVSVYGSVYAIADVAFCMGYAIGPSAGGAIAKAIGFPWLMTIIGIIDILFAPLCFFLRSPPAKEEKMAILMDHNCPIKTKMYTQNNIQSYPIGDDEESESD

On to `COc1cc2c(cc1OC)[C@H]1C[C@@H](O)[C@H](CC(C)C)CN1CC2` [NBI-98782, (2R, 3R,11bR)-3-isobutyl-9,10-dimethoxy-1,3,4,6,7,11b-hexahydro-2H-pyrido[2,1-a]isoquinolin-2-ol], for which the receptor occupancy at 0.04 mg/kg in data set [1] (iv, read-out: % Occ, animal A7701, Caudate, 0.04 mg/kg) is 59.1%; in data set [1] (iv, read-out: % Occ, animal A7701, Putamen, 0.04 mg/kg), 55.2%; in data set [1] (read-out: Target Occupancy, Mean of Putamen and Caudate, A7701, total mass dose 0.04 mg/kg), 57%. Moreover, the receptor occupancy at 0.13 mg/kg stood at 67.9% in data set [1] (iv, read-out: % Occ, animal A7701, Caudate, 0.13 mg/kg); 70.8% in data set [1] (iv, read-out: % Occ, animal A7701, Putamen, 0.13 mg/kg); 77.5% in data set [1] (iv, read-out: Occ, animal A7702, Caudate, 0.13 mg/kg); 79.1% in data set [1] (iv, read-out: Occ, animal A7702, Putamen, 0.13 mg/kg); 69% in data set [1] (read-out: Target Occupancy, Mean of Putamen and Caudate, A7701, total mass dose 0.13 mg/kg); 78% in data set [1] (read-out: Target Occupancy, Mean of Putamen and Caudate, A7702, total mass dose 0.13 mg/kg). Moreover, the receptor occupancy at 0.5 mg/kg in data set [1] (iv, read-out: % Occ, animal A7701, Caudate, 0.5 mg/kg) amounted to 89.4%; in data set [1] (iv, read-out: % Occ, animal A7701, Putamen, 0.5 mg/kg) it was 89.6%; in data set [1] (read-out: Target Occupancy, Mean of Putamen and Caudate, A7701, total mass dose 0.5 mg/kg) it was 90%. Also, the receptor occupancy at 0.016 mg/kg in data set [1] (iv, read-out: % Occ, animal A7702, Caudate, 0.016 mg/kg) amounted to 18.7%; in data set [1] (iv, read-out: % Occ, animal A7702, Putamen, 0.016 mg/kg) it was 18.3%; in data set [1] (read-out: Target Occupancy, Mean of Putamen and Caudate, A7702, total mass dose 0.016 mg/kg) it was 19%. The “Mean ng/mL NBI-98782 Concentration during PET Scan (60-180 min)” value in data set [2] (A7701, total mass dose 0.04 mg/kg i.v.) is reported as 2.9 ng/mL; in data set [2] (A7701, total mass dose 0.5 mg/kg i.v.) it was 44.5 ng/mL; in data set [2] (A7702, total mass dose 0.016 mg/kg i.v.), 1.7 ng/mL; in data set [2] (A7702, total mass dose 0.13 mg/kg i.v.) it was 14.9 ng/mL.

Regarding `COc1cc2c(cc1OCCC[18F])CCN1C[C@@H](CC(C)C)[C@H](O)C[C@H]21` [[^18F]AV-133], the “Test-retest for BPND” value in data set [3] was 9.4%.

Take `COc1cc2c(cc1OC)[C@H]1C[C@@H](OC(=O)[C@@H](N)C(C)C)[C@H](CC(C)C)CN1CC2` [valbenazine, (S)-2-amino-3-methyl-butyric acid (2R, 3R,11bR)-3-isobutyl-9,10-dimethoxy-1,3,4,6,7,11b-hexahydro-2H-pyrido[2,1-a]isoquinolin-2-yl ester]: the Adverse events result in data set [4] is “consistent with the known safety and tolerability profile of valbenazine”. Further, the clinical observations result in data set [5] was “partially closed eyes (ptosis) (in all monkeys), decreased activity (in ⅔ monkeys), and salivation (in 1 monkey)”. For the same compound, the “increase in [^11C]-PHNO ΔBPND” value in data set [6] was 21-44% and 20-40%. Moreover, in data set [7] (doses clinically effective in tardive dyskinesia), the “estimated VMAT2 occupancy maintained throughout each 24-hour period” value is recorded as not below 73%. The receptor occupancy at 40 mg in data set [7] (valbenazine 40 mg once-daily, read-out: estimated target occupancy for Cave) was approximately 80%.
